Assay results taken from paper PMC12194305, “Assessing Bioconcentration and Biotransformation of BDE-47 In Vitro: The Relevance of Bioavailable and Intracellular Concentrations” (Journal of Xenobiotics, 2025).
Where “and” joins values, the source holds several entries; their conditions need not be identical. Equal values may be shown once. Read-outs that look alike come from different tables or passages of the source.

Experiments:
[1] = tested on: ZFL cells; assay: Biotransformation of BDE-47 in ZFL cells (metabolites in cells and medium)
[2] = tested on: HepG2 cells; design: method as in PMID 37289209; settings: HepG2 cells 48 h, 20 mg·L^−1 BDE-47, calculated with estimated Cfree percentage, cited from earlier work
[3] = tested on: zebrafish eleutheroembryos; design: method as in PMID 36705440; settings: zebrafish embryos 48 h, larvae samples; cited from earlier work
[4] = tested on: ZFL cells; settings: cited from earlier work; for Ratio MBM/experimental of internal concentration: ref De Oro-Carretero and Sanz-Landaluze 2024
[5] = design: method as in PMID 39103099; settings: binding constant to BSA protein of FBS; cited from earlier work
[6] = Experimental determination of free bioavailable concentration (Cfree,exp) in exposure medium by SPME; type: in vitro ADME; settings: for Cfree, exp: 24–48 h
Experimental: In parallel with the exposure experiment for the evaluation of bioaccumulation and biotransformation described in the previous sections, an experiment was performed to estimate experimentally the free bioavailable concentration (Cfree,exp) in the test medium. For this purpose, an experiment was designed to simulate the test conditions, and Cfree was determined using solid-phase microextraction (SPME), following the fiber method developed by Henneberger et al..
PDMS-coated glass microfibers (30 µm thick, 13.19 µL/m coating volume) were cut into 1.5 cm pieces and cleaned in methanol for more than 24 h prior to the experiment, with the solvent replaced at least three times. The cleaned and dried fiber was placed in a glass vial with 1 mL of sample exposure medium containing 1.8 and 2.6 mg·L^−1 BDE-47. Three replicates were prepared for each condition. A portion of the initial sample was stored at −20 °C until analysis. The vials were then sealed and incubated with rotation at 28 °C for 72 h until equilibrium of BDE-47 distribution among the fiber, medium, and binding to the predominant serum protein of the culture (Bovine serum albumin, BSA) was reached. Once at equilibrium, the fibers were extracted from the vials and desorbed with 400 µL isooctane for 24 h with rotation. Finally, the extract was analyzed by GC-MS-µECD, as described in Section 2.5. The concentration of BDE-47 in the initial sample (Cmed,0h) and in the resulting media after equilibration (Cmed,eq) was determined according to the procedure described in Section 2.5, to confirm the actual mass balance.
Since this study evaluates and discusses the behavior of BDE-47 in comparison to observations from a previous study with phenanthrene, as explained in the introduction section, the experimental Cfree of phenanthrene was also determined, as it had not been measured previously. In this case, the difference in the process was that PA fibers (36 µm thick, 16.71 µL/m coating volume) were used. Samples of 10 and 20 mg·L^−1 PHE were prepared, and the fibers and samples were incubated for 24–48 h until equilibrium was reached, and desorbed with hexane for 3 h.
To determine the free concentration, concentration in the SPME fiber (Cfiber) was first estimated using Equation (1) from the concentration measured in the desorption extract (Cdes), the desorption volume (Vdes) and the coating volume of the fiber (Vfiber). This volume was estimated according to the coating volume and the length of the fiber.(1) Cfiber=Cdes·Vdes/Vfiber
Next, Cfree,exp was determined at the time before the SPME fiber was added to the system, according to Equation (2). For this, the concentration measured in the fiber equilibrated with the medium (PDMS-BDE-47-BSA or PA-PHE-BSA), the concentration measured in the initial sample (Cmed,0h), and the partition constant of the equilibrium formed between the fiber and the medium (log DPDMS/medium; BDE-47 = 5.84 [25]; log DPA/medium; PHE = 6.69 [26]) were used.(2) Cfree=Cmed,0h·Vsample/Dfiber/medium·Cmed,0h·Vsample/Cfiber−Vfiber

[7] = tested on: ZFL cells; design: method as in PMID 39103099; settings: exposure to 10 mg·L^−1 PHE, previous study; cited from earlier work
[8] = partition constant PA fiber/medium; cited from earlier work
[9] = design: method as in PMID 36264934; settings: dialysis, DMEM + 10% newborn calf serum, Cnom 5 μmol·L^−1, 1% DMSO; cited from earlier work

Oc1cc(Br)ccc1Oc1ccc(Br)cc1Br [2′-OH-BDE-28]
detection of the metabolite in ZFL cell and medium samples on exposure to BDE-47 ([1]; BDE-47 at 1.6 and 2.8 mg·L^−1, 24–72 h): significant and increasing concentration over time

Oc1c(Br)ccc(Oc2ccc(Br)cc2Br)c1Br [3-OH, 3-OH-BDE-47]
biotransformation ratio metabolite / free bioavailable BDE-47 concentration ([1]; medium samples, 24 h, Cnominal BDE-47 1.6 mg·L^−1): 0.07
biotransformation ratio metabolite / free bioavailable BDE-47 concentration ([1]; medium samples, 24 h, Cnominal BDE-47 2.8 mg·L^−1): 0.08
biotransformation ratio metabolite / free bioavailable BDE-47 concentration ([1]; medium samples, 48 h, Cnominal BDE-47 1.6 mg·L^−1): 0.08
biotransformation ratio metabolite / free bioavailable BDE-47 concentration ([1]; medium samples, 48 h, Cnominal BDE-47 2.8 mg·L^−1): 0.08
biotransformation ratio metabolite / free bioavailable BDE-47 concentration ([1]; medium samples, 72 h, Cnominal BDE-47 1.6 mg·L^−1): 0.09
biotransformation ratio metabolite / free bioavailable BDE-47 concentration ([1]; medium samples, 72 h, Cnominal BDE-47 2.8 mg·L^−1): 0.15
biotransformation ratio metabolite / BDE-47 concentration ([2]; medium samples): 0.13

COc1cc(Oc2ccc(Br)cc2Br)c(Br)cc1Br [5-MeO, 5-MeO-BDE-47]
biotransformation ratio metabolite / free bioavailable BDE-47 concentration ([1]; cell samples, 24 h, Cnominal BDE-47 1.6 mg·L^−1): 0.11
biotransformation ratio metabolite / free bioavailable BDE-47 concentration ([1]; cell samples, 24 h, Cnominal BDE-47 2.8 mg·L^−1): 0.17
biotransformation ratio metabolite / free bioavailable BDE-47 concentration ([1]; cell samples, 48 h, Cnominal BDE-47 1.6 mg·L^−1): 0.12
biotransformation ratio metabolite / free bioavailable BDE-47 concentration ([1]; cell samples, 48 h, Cnominal BDE-47 2.8 mg·L^−1): 0.18
biotransformation ratio metabolite / free bioavailable BDE-47 concentration ([1]; cell samples, 72 h, Cnominal BDE-47 1.6 mg·L^−1): 0.15
biotransformation ratio metabolite / free bioavailable BDE-47 concentration ([1]; cell samples, 72 h, Cnominal BDE-47 2.8 mg·L^−1): 0.20
biotransformation ratio metabolite / BDE-47 concentration [3]: 0.06–0.13
biotransformation ratio metabolite / BDE-47 concentration ([2]; cell samples): 0.10

Oc1cc(Oc2ccc(Br)cc2Br)c(Br)cc1Br [5-OH, 5-OH-BDE-47]
biotransformation ratio metabolite / BDE-47 concentration ([2]; medium samples): 0.2

c1ccc2c(c1)ccc1ccccc12 [PHE, phenanthrene]
Ratio MBM/experimental of internal concentration ([4]; 24h, 10 mg·L-1, ZFL cells): 491%
Ratio MBM/experimental of internal concentration ([4]; 24h, 50 mg·L-1, ZFL cells): 510%
Ratio MBM/experimental of internal concentration ([4]; 48h, 10 mg·L-1, ZFL cells): 532%
Ratio MBM/experimental of internal concentration ([4]; 48h, 50 mg·L-1, ZFL cells): 449%
Ratio MBM/experimental of internal concentration ([4]; 72h, 10 mg·L-1, ZFL cells): 421%
Ratio MBM/experimental of internal concentration ([4]; 72h, 50 mg·L-1, ZFL cells): 402%
BCFMBM ([4]; ZFL cells, previous study): 1656 L/kg
ratio of MBM vs. experimental Ccell ([4]; ZFL cells, previous study): above 100%
free concentration as % of total concentration ([4]; assays with ZFL cells, previous study): 1.7%
log DBSA/W [5]: 3.81
% Cfree, exp ([6]; Cnom 10 mg·L^−1, % of total concentration): 2.4% and 2.4 ± 0.2%
Cfree, exp ([6]; Cnom 10 mg·L^−1, PA fiber): (0.22 ± 0.02) mg·L^−1
% Cfree, exp ([6]; Cnom 20 mg·L^−1, % of total concentration): 2.9% and 2.9 ± 0.2%
Cfree, exp ([6]; Cnom 20 mg·L^−1, PA fiber): (0.52 ± 0.04) mg·L^−1
BCF48 h [7]: 393 L/kg
BCFk [7]: 986 L/kg
log DPA/medium [8]: 6.69

CC/C(=C(\c1ccccc1)c1ccc(OCCN(C)C)cc1)c1ccccc1 [tamoxifen]
decrease of free concentration from the initial concentration [9]: up to 50%
